Measured values taken from patent US9090628B2, “Benzoxazepin compounds selective for PI3K P110 delta and methods of use” (GENENTECH, INC., priority 2011, dated 2015).

Columns and labels:
p110 delta = p110 delta (Homo sapiens (Human), UniProt O00329); test: PI3K isoform inhibition assay, p110 delta (fluorescence polarization displacement); assay type: biochemical
Description: (§1) PI3K enzymatic activity was assayed by measuring the amount of product phosphatidylinositol 3,4,5-phosphate (PIP3) formed from substrate 4,5 phosphatidylinositol 4,5-phosphate (PIP2) using a fluorescence polarization displacement assay. The decrease in fluorescence polarization of a fluorescent PIP3 probe is measured as it is displaced from a PIP3-binding protein GRP-1 detector by PI3K-catalyzed product. […] The kinase reactions were initiated by the addition of 40 ng/mL p110α/p85α, 300 ng/mL p110β/p85α, 40 ng/mL p110γ, or 40 ng/mL p110δ/p85α (Upstate Group, Millipore; Dundee, UK), and 10 μM PIP2 (Echelon Biosciences) to the wells. […] After 60 minutes of incubation at room temperature to allow equilibration of labeled and unlabeled PIP3 binding, the parallel and perpendicular components of the fluorescence emissions from each sample were measured at an excitation wavelength of 530 nm and an emission wavelength of 590 nm using an Envision fluorescent plate reader with a rhodamine filter (PerkinElmer Life and Analytical Sciences; Wellesley, Mass.). The assay is capable of detecting 0.1-2.0 μM PIP3 product. The IC50 values were obtained by fitting the dose-dependent inhibition data to a 4-parameter equation using Assay Explorer software (MDL, San Ramon, Calif.).
The Formula I compound was serially diluted in 100% DMSO. The kinase reaction was incubated for 1 h at room temperature, and the reaction was terminated by the addition of PBS. IC50 values were subsequently determined using sigmoidal dose-response curve fit (variable slope).
(§2) The four Class I PI 3-kinases are cloned into baculovirus vectors as follows: […]

p110 alpha = p110 alpha (Homo sapiens (Human), UniProt P42336); test: PI3K isoform inhibition assay, p110 alpha (for alpha/delta selectivity); details: ratio of biochemical IC50 values
Description: as §1
The same protocol may be used to establish IC50 values for p110α (alpha) PI3K binding.
as §2

p110 delta, sequence (O00329 whole entry, canonical isoform): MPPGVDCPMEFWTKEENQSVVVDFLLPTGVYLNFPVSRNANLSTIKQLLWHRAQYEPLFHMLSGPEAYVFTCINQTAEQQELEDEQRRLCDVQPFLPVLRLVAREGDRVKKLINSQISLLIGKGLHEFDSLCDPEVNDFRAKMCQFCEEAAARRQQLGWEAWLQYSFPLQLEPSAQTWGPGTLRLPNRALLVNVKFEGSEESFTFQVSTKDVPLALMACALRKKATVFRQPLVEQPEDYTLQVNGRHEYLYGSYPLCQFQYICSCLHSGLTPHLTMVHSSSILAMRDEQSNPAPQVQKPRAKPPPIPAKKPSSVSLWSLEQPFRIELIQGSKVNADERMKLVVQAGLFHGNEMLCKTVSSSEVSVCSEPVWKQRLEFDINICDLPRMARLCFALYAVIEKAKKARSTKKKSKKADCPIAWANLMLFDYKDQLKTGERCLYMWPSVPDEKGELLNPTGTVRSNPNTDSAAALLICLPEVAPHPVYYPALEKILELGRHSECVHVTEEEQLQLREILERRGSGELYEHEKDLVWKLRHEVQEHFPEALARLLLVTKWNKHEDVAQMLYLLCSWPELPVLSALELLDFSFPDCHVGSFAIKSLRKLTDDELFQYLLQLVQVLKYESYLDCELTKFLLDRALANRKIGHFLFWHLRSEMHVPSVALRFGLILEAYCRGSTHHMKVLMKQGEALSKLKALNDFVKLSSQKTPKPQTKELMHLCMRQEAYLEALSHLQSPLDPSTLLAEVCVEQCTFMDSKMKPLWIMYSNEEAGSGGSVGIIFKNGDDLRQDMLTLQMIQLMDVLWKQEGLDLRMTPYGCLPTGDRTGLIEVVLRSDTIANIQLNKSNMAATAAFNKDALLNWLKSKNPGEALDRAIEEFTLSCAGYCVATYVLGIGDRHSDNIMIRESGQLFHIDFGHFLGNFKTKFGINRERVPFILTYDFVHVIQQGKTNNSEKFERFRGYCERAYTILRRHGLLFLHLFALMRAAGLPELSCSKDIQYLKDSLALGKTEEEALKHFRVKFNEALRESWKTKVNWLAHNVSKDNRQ
p110 delta, sequence (P27986 whole entry partner, canonical isoform): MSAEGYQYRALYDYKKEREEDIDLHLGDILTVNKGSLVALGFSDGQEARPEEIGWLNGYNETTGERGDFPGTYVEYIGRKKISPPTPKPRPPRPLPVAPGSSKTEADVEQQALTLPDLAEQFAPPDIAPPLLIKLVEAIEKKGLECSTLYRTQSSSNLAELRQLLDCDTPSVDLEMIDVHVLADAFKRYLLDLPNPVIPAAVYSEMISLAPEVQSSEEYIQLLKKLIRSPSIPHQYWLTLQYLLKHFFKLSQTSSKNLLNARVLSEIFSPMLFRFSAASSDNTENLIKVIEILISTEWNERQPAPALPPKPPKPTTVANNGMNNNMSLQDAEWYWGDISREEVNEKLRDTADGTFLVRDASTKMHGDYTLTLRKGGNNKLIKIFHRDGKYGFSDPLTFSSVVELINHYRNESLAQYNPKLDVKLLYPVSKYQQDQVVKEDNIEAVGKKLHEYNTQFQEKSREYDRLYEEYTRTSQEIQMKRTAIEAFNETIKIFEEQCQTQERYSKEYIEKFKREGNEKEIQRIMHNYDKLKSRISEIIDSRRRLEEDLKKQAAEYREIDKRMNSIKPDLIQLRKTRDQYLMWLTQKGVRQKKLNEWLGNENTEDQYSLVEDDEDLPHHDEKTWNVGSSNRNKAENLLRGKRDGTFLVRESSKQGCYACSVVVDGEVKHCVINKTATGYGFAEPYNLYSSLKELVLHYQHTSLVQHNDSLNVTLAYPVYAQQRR
p110 alpha, sequence (P42336 whole entry, canonical isoform): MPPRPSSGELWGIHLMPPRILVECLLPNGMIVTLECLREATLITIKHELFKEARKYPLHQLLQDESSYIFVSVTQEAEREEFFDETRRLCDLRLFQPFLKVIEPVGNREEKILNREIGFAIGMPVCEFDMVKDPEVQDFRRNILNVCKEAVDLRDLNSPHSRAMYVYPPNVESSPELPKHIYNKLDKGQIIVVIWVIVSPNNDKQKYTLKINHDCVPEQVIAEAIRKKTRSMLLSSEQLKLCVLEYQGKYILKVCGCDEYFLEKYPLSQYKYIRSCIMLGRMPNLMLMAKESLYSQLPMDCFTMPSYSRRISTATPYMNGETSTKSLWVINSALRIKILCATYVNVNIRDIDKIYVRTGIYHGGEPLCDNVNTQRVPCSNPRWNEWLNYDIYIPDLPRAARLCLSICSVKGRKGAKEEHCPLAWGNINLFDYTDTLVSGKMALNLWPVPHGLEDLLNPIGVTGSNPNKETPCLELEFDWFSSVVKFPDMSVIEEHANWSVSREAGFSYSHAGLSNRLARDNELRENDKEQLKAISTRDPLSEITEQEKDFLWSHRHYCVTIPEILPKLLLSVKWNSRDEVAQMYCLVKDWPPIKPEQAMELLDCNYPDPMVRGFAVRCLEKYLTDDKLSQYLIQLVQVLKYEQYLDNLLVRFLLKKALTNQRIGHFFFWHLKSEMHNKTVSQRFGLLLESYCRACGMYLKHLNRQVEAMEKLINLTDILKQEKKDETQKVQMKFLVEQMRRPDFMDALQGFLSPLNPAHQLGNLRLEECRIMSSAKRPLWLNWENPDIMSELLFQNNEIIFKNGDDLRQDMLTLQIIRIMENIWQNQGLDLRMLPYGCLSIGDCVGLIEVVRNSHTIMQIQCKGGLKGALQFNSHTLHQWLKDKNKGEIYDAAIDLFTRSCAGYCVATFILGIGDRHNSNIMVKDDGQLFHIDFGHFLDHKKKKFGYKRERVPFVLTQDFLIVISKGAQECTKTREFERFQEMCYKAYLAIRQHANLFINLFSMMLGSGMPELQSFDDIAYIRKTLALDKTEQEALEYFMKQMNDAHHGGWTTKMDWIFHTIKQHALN
p110 alpha, sequence (P27986 whole entry partner, canonical isoform): as the sequence (P27986 whole entry partner, canonical isoform) above

SMILES | IC50 (p110 delta) [nM] | IC50 p110 alpha/IC50 p110 delta (p110 alpha)
Cc1nc(-c2cn3c(n2)-c2ccc(N4CCCC45CCCN(C)C5)cc2OCC3)n(C(C)C)n1 (centres unmarked) [Example 320, 2-(2-isopropyl-5-methyl-1,2,4-triazol-3-yl)-9-(7-methyl-1,7-diazaspiro[4.5]decan-1-yl)-5,6-dihydroimidazo[1,2-d][1,4]benzoxazepine] | 0.236 | 54.6
Cc1nc(-c2cn3c(n2)-c2ccc(N4CCCC4C4CCCN(C)C4)cc2OCC3)n(C(C)C)n1 (centres unmarked) [Example 321, 2-(2-isopropyl-5-methyl-1,2,4-triazol-3-yl)-9-[2-(1-methyl-3-piperidyl)pyrrolidin-1-yl]-5,6-dihydroimidazo[1,2-d][1,4]benzoxazepine] | 2.52 | 22.1
Cc1nc(-c2cn3c(n2)-c2ccc(N4CCCC4C4CCCN(C)C4)cc2OCC3)n(C(C)C)n1 (centres unmarked) [Example 322, 2-(2-isopropyl-5-methyl-1,2,4-triazol-3-yl)-9-[2-(1-methyl-3-piperidyl)pyrrolidin-1-yl]-5,6-dihydroimidazo[1,2-d][1,4]benzoxazepine] | 5.68 | 31.9
Cc1nc(-c2cn3c(n2)-c2ccc(N4CCCC4C4CCCCN4C)cc2OCC3)n(C(C)C)n1 (centres unmarked) [Example 323, 2-(2-isopropyl-5-methyl-1,2,4-triazol-3-yl)-9-[2-(1-methyl-2-piperidyl)pyrrolidin-1-yl]-5,6-dihydroimidazo[1,2-d][1,4]benzoxazepine] | 1.94 | 11.7
Cc1nc(-c2cn3c(n2)-c2ccc(N4CCCC4C4CCCCN4C)cc2OCC3)n(C(C)C)n1 (centres unmarked) [Example 324, 2-(2-isopropyl-5-methyl-1,2,4-triazol-3-yl)-9-[2-(1-methyl-2-piperidyl)pyrrolidin-1-yl]-5,6-dihydroimidazo[1,2-d][1,4]benzoxazepine] | 139 | 15
Cc1nc(-c2cn3c(n2)-c2ccc(N4CCC[C@H]4CN4CCCC4)cc2OCC3)n(C(C)C)n1 [Example 325, (S)-2-(1-isopropyl-3-methyl-1H-1,2,4-triazol-5-yl)-9-(2-(pyrrolidin-1-ylmethyl)pyrrolidin-1-yl)-5,6-dihydrobenzo[f]imidazo[1,2-d][1,4]oxazepine] | 0.313 | 20.2
Cc1nc(-c2cn3c(n2)-c2ccc(N4CCC[C@@H]4CN4CCCC4)cc2OCC3)n(C(C)C)n1 [Example 326, (R)-2-(1-isopropyl-3-methyl-1H-1,2,4-triazol-5-yl)-9-(2-(pyrrolidin-1-ylmethyl)pyrrolidin-1-yl)-5,6-dihydrobenzo[f]imidazo[1,2-d][1,4]oxazepine] | 0.416 | 52.9
CC(C)n1nc(N)nc1-c1cn2c(n1)-c1ccc(-c3ccnn3C3CCN(C(C)(C)C)CC3)cc1OCC2 [Example 327, 5-[9-[2-(1-tert-butyl-4-piperidyl)pyrazol-3-yl]-5,6-dihydroimidazo[1,2-d][1,4]benzoxazepin-2-yl]-1-isopropyl-1,2,4-triazol-3-amine] | 3.89 | 20.8
Cc1nc(-c2cn3c(n2)-c2cc(C(C)N4CCN(C(C)(C)C)CC4)c(F)cc2OCC3)n(C(C)C)n1 (centres unmarked) [Example 328, 10-[1-(4-tert-butylpiperazin-1-yl)ethyl]-9-fluoro-2-(2-isopropyl-5-methyl-1,2,4-triazol-3-yl)-5,6-dihydroimidazo[1,2-d][1,4]benzoxazepine] | 2.29 | 109
Cc1nc(-c2cn3c(n2)-c2cc([C@@H](C)N4CCN(C(C)C)CC4)c(C)cc2OCC3)n(C(C)C)n1 [Example 331, (R)-2-(1-isopropyl-3-methyl-1H-1,2,4-triazol-5-yl)-10-(1-(4-isopropylpiperazin-1-yl)ethyl)-9-methyl-5,6-dihydrobenzo[f]imidazo[1,2-d][1,4]oxazepine] | 0.865 | 104
Cc1nc(-c2cn3c(n2)-c2cc([C@H](C)N4CCN(C(C)C)CC4)c(C)cc2OCC3)n(C(C)C)n1 [Example 332, (S)-2-(1-isopropyl-3-methyl-1H-1,2,4-triazol-5-yl)-10-(1-(4-isopropylpiperazin-1-yl)ethyl)-9-methyl-5,6-dihydrobenzo[f]imidazo[1,2-d][1,4]oxazepine] | 0.678 | 13
CCN(CC)C1CCOC(c2c(-c3ccc4c(c3)OCCn3cc(-c5nc(C)nn5C(C)C)nc3-4)cnn2C)C1 (centres unmarked) [Example 333, N,N-diethyl-2-[4-[2-(2-isopropyl-5-methyl-1,2,4-triazol-3-yl)-5,6-dihydroimidazo[1,2-d][1,4]benzoxazepin-9-yl]-2-methyl-pyrazol-3-yl]tetrahydropyran-4-amine] | 2.37 | 27.2
Cc1nc(-c2cn3c(n2)-c2cc([C@@H](C)N4CCN(CC(C)(C)O)CC4)c(F)cc2OCC3)n(C(C)C)n1 [Example 334, (R)-1-(4-(1-(9-fluoro-2-(1-isopropyl-3-methyl-1H-1,2,4-triazol-5-yl)-5,6-dihydrobenzo[f]imidazo[1,2-d][1,4]oxazepin-10-yl)ethyl)piperizan-1-yl)-2-methylpropan-2-ol] | 10.5 | 17.3
Cc1nc(-c2cn3c(n2)-c2ccc(-c4cnn(C)c4C4CC(N(C)C(C)C)CCO4)cc2OCC3)n(C(C)C)n1 (centres unmarked) [Example 335, N-isopropyl-2-[4-[2-(2-isopropyl-5-methyl-1,2,4-triazol-3-yl)-5,6-dihydroimidazo[1,2-d][1,4]benzoxazepin-9-yl]-2-methyl-pyrazol-3-yl]-N-methyl-tetrahydropyran-4-amine] | 2.27 | 96.5
Cc1nc(-c2cn3c(n2)-c2cc([C@H](C)N4CCN(CC(C)(C)O)CC4)c(F)cc2OCC3)n(C(C)C)n1 [Example 336, (S)-1-(4-(1-(9-fluoro-2-(1-isopropyl-3-methyl-1H-1,2,4-triazol-5-yl)-5,6-dihydrobenzo[f]imidazo[1,2-d][1,4]oxazepin-10-yl)ethyl)piperazin-1-yl)-2-methylpropan-2-ol] | 26.8 | 27
Cc1nc(-c2cn3c(n2)-c2ccc(N4CCCC45CCCN(C(C)C)C5)cc2OCC3)n(C(C)C)n1 (centres unmarked) [Example 337, 9-(7-isopropyl-1,7-diazaspiro[4.5]decan-1-yl)-2-(2-isopropyl-5-methyl-1,2,4-triazol-3-yl)-5,6-dihydroimidazo[1,2-d][1,4]benzoxazepine] | 1.52 | 47.9
Cc1nc(-c2cn3c(n2)-c2cc([C@@H](C)N4CCN(C(C)C)CC4)c(F)cc2OCC3)n(C(C)C)n1 [Example 338, (R)-9-fluoro-2-(1-isopropyl-3-methyl-1H-1,2,4-triazol-5-yl)-10-(1-(4-isopropylpiperazin-1-yl)ethyl)-5,6-dihydrobenzo[f]imidazo[1,2-d][1,4]oxazepine] | 1.48 | 114
CCN(CC)C1CCOC(c2c(-c3ccc4c(c3)OCCn3cc(-c5nc(C)nn5C(C)C)nc3-4)cnn2C)C1 (centres unmarked) [Example 339, N,N-diethyl-2-[4-[2-(2-isopropyl-5-methyl-1,2,4-triazol-3-yl)-5,6-dihydroimidazo[1,2-d][1,4]benzoxazepin-9-yl]-2-methyl-pyrazol-3-yl]tetrahydropyran-4-amine] | 1.07 | 61.5
Cc1nc(-c2cn3c(n2)-c2cc([C@H](C)N4CCN(C(C)C)CC4)c(F)cc2OCC3)n(C(C)C)n1 [Example 340, (S)-9-fluoro-2-(1-isopropyl-3-methyl-1H-1,2,4-triazol-5-yl)-10-(1-(4-isopropylpiperazin-1-yl)ethyl)-5,6-dihydrobenzo[f]imidazo[1,2-d][1,4]oxazepine] | 2.32 | 25.8
CCN(CC)C1CCOC(c2c(-c3ccc4c(c3)OCCn3cc(-c5nc(C)nn5C(C)C)nc3-4)cnn2C)C1 (centres unmarked) [Example 341, N,N-diethyl-2-[4-[2-(2-isopropyl-5-methyl-1,2,4-triazol-3-yl)-5,6-dihydroimidazo[1,2-d][1,4]benzoxazepin-9-yl]-2-methyl-pyrazol-3-yl]tetrahydropyran-4-amine] | 0.771 | 71.1
Cc1nc(-c2cn3c(n2)-c2ccc(N4CCC4[C@@H]4CCCN(C(C)C)C4)cc2OCC3)n(C(C)C)n1 (stereo partly drawn) [Example 342, 2-(1-isopropyl-3-methyl-1H-1,2,4-triazol-5-yl)-9-(2-((R)-1-isopropylpiperidin-3-yl)azetidin-1-yl)-5,6-dihydrobenzo[f]imidazo[1,2-d][1,4]oxazepine] | 0.16 | 21.3
Cc1nc(-c2cn3c(n2)-c2ccc(-c4cnn(C)c4C4CC(N(C)C(C)C)CCO4)cc2OCC3)n(C(C)C)n1 (centres unmarked) [Example 343, N-isopropyl-2-[4-[2-(2-isopropyl-5-methyl-1,2,4-triazol-3-yl)-5,6-dihydroimidazo[1,2-d][1,4]benzoxazepin-9-yl]-2-methyl-pyrazol-3-yl]-N-methyl-tetrahydropyran-4-amine] | 0.939 | 53
